Test results: patent US20040072770A1, “Methods for specifically inhibiting histone deacetylase-7 and 8” (priority 2002, published 2004)

Tests used:
[1] = biological target: HDAC-1 (Homo sapiens, UniProt Q13547); assay: Enzyme inhibitory activity, HD1; format: biochemical; details: read-out: IC50 HD 1
[2] = biological target: HDAC-4 (Homo sapiens, UniProt P56524); assay: Enzyme inhibitory activity, HD4; format: biochemical
[3] = tested on: lung cancer cells A549; assay: MTT assay, A549; format: cell-based; details: Homo sapiens, 72 hours, read-out: IC50 A 549 (MTT)
Protocol: (§1) Effects of HDAC isotype-specific small molecule inhibitors on growth inhibition of various human cancer cells (from ATCC) in vitro were determined by MTT assays. Briefly, cells seeded in 96-well plates were incubated for 72 hours at 37° C. in a 5% CO2 incubator. MTT (Sigma) was added at a final concentration of 0.5 mg/ml and incubated with the cells for 4 hours before an equal volume of solubilization buffer (50% N,N-dimethylformamide, 20% SDS, pH 4.7) was added onto cultured cells. After overnight incubation, solubilized dye was quantified by colorimetric reading at […] using a reference at 630 nM. OD values were converted to cell numbers according to a standard growth curve of the relevant cell line. The concentration which reduces cell numbers to 50% of those of DMSO-treated cells is determined as MTT IC50. In Table 4, IC50s of several HDAC7 or HDAC8 inhibitors in MTT assays in various human cancer cell lines were listed. They include colon cancer cells HCT116 and SW48, lung cancer cells A549 and H446, breast cancer cells MCF-7 and MDAmb231, a prostate cancer cell line Du145 and a bladder cancer cell line T24.

[4] = biological target: T1, HDAC-7 (Homo sapiens, UniProt Q8WUI4); assay: Enzyme inhibitory activity, HD7; format: biochemical; details: read-out: IC50 HD 7
T1 sequence (Q8WUI4 1-952): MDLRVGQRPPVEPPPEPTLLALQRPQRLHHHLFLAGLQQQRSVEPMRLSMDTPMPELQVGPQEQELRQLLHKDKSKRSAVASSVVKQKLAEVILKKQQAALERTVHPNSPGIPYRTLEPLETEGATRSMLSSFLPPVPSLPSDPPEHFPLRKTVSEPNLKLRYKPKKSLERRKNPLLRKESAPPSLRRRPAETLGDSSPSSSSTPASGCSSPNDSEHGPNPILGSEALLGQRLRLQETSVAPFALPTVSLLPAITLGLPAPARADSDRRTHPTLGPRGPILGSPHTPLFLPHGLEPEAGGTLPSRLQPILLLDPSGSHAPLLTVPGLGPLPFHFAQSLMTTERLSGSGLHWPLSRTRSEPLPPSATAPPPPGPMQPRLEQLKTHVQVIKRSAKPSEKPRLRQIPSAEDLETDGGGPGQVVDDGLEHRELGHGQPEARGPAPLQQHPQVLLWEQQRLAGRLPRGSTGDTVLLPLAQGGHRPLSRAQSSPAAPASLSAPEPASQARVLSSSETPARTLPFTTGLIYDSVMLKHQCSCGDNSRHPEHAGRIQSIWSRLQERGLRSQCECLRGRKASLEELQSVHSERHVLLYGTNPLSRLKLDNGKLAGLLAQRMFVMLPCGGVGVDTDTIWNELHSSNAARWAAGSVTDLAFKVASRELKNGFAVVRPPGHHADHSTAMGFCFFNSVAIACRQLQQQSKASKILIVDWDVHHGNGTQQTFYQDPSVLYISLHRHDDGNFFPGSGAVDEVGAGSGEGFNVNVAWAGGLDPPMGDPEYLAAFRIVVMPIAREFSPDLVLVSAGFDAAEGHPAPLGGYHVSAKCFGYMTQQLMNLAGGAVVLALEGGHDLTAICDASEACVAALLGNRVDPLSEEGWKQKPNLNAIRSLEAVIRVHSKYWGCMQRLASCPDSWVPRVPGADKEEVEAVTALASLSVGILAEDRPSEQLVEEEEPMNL

[5] = tested on: lung cancer cells H446; assay: MTT assay, H446; format: cell-based; details: Homo sapiens, NCI-H446; 72 hours; read-out: MTT IC50 H 446
Protocol: as §1

[6] = tested on: bladder cancer cell line T24; assay: MTT assay, T24; format: cell-based; details: Homo sapiens; 72 hours; read-out: MTT IC50 T 24
Protocol: as §1

[7] = tested on: colon cancer cells HCT116; assay: MTT assay, HCT116; format: cell-based, human; details: Homo sapiens, HCT-116; 72 hours
Protocol: as §1

[8] = tested on: colon carcinoma cells HCT116 tumors; assay: Tumor growth in a mouse model, HCT116; format: in vivo; details: intraperitoneal, BALB/c nude mice, vs vehicle-treated
Protocol: Female BALB/c nude mice are obtained from Charles River Laboratories (Charles River, N.Y.) and used at age 8-10 weeks. Human tumor cells (2×10^6, colon carcinoma cells HCT116 or SW48, lung carcinoma cells A549, pancreatic carcinoma Panc-1, ovarian carcinoma cells ES2, or prostate carcinoma cells Du145) are injected subcutaneously in the animal's flank and allowed to form solid tumors. Tumor fragments are serially passaged a minimum of three times, then approximately 30 mg tumor fragments are implanted subcutaneously through a small surgical incision under general anaesthesia. Small molecule inhibitor administration by intraperotineal or oral administration was initiated when the tumors reached a volume of 100 mm^3. For intraperotineal administration, small molecule inhibitors of HDAC-7, HDAC-8 or both, or in combination with small molecule inhibitors of HDAC-1 (20-60 mg/kg body weight/day) are dissolved in 100% DMSO and administered daily by injection. For oral administration, small molecule inhibitors of HDAC (60 mg/kg body weight) are dissolved in saline acidified with 0.2 N HCl. Tumor volumes are monitored twice weekly up to 20 days. Each experimental group contains at least 6-8 animals. Percentage inhibition is calculated using volume of tumor from vehicle-treated mice as controls. Shown in Table 4, inhibition of HDAC7 or HDAC8 in combination with HDAC1 leads to inhibition of growth of various human tumors in vivo.

[9] = biological target: T2, HDAC-8 (Homo sapiens, UniProt Q9BY41); assay: Enzyme inhibitory activity, HD8; format: biochemical; details: read-out: IC50 HD 8
T2 sequence (Q9BY41 1-377): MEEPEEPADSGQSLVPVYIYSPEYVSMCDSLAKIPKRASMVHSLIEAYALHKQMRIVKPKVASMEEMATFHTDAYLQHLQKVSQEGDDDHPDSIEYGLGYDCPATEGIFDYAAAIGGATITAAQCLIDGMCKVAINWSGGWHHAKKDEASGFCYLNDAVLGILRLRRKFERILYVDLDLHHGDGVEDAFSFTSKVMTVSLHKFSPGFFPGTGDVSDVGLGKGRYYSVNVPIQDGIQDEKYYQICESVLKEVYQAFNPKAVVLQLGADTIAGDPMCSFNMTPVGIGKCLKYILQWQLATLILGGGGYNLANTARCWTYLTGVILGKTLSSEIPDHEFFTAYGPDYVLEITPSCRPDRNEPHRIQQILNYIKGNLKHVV

[10] = (20,I): 20 mg/kg body weight/day

Sequence of HDAC-1 (Q13547 whole entry): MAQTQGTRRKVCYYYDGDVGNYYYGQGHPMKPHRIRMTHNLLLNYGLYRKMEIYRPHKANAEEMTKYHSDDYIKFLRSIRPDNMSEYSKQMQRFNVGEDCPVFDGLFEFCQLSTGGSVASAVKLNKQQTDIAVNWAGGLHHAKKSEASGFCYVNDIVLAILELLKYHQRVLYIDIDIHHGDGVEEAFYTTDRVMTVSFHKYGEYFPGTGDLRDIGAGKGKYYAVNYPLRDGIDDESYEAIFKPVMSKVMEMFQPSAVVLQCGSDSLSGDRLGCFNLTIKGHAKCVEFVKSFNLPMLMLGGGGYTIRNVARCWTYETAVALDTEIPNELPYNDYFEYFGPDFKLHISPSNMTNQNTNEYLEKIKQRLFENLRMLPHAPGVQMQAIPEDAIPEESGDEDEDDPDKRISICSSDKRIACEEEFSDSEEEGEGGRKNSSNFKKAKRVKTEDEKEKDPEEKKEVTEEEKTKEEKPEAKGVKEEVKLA
Sequence of HDAC-4 (P56524 whole entry): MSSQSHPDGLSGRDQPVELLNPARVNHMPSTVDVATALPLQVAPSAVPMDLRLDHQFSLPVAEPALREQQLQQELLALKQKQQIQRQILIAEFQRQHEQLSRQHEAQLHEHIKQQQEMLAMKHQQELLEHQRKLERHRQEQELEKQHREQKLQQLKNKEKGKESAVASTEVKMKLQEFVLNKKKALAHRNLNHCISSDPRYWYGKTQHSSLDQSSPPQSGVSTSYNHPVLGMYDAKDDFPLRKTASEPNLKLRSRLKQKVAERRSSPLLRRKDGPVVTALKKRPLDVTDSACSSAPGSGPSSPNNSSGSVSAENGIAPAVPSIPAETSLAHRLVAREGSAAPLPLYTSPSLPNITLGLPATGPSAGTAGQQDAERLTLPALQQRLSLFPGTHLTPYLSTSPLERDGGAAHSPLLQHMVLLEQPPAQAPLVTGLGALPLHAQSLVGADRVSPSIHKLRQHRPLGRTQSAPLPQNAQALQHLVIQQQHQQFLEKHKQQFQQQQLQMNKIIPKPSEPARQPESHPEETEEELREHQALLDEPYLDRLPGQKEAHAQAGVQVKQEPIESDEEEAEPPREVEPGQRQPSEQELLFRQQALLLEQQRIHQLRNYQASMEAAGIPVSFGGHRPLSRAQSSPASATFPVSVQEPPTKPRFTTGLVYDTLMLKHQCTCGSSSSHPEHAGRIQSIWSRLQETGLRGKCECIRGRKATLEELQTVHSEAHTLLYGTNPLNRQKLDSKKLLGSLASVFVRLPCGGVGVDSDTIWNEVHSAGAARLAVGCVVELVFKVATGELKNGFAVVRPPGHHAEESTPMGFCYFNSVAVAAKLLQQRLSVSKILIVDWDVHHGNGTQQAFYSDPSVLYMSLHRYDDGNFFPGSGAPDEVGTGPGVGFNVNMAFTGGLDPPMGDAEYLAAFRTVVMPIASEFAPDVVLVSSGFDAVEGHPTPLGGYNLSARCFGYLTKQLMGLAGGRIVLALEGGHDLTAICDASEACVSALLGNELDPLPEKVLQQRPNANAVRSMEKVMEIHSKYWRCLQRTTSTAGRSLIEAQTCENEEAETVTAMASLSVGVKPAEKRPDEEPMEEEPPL

IC50 [1] | IC50 [2] | IC50 [3] | IC50 [4] | IC50 [5] | IC50 [6] | IC50 [7] | IC50 [9] | SMILES | % of Inhibition of Tumor Growth in Vivo HCT116 [8, 10] | % of Inhibition of Tumor Growth in Vivo HCT116 ([8]; (40,I): 40 mg/kg body weight/day)
2000 nM | > 50000 nM | 3000 nM | 45000 nM | 900 nM | 2000 nM | 400 nM | > 50000 nM | COc1ccc(NCc2ccc(C(=O)Nc3ccccc3N)cc2)cc1OC [Compound 17, N-(2-Aminophenyl)-4-[(3,4-dimethoxyphenylamino)-methyl]-benzamide] | 77(20,I) % | 
4000 nM | > 50000 nM | 300 nM | 37000 nM | 300 nM |  | 100 nM | > 50000 nM | COc1ccc(-c2ccnc(NCc3ccc(C(=O)Nc4ccccc4N)cc3)n2)cc1OC [Compound 21, N-(2-Amino-phenyl)-4-{[4-(3,4-dimethoxy-phenyl)-pyrimidin-2-ylamino]-methyl}-benzamide] |  | 
 |  | 8000 nM | 20000 nM | 1000 nM | 8000 nM | 4000 nM | > 50000 nM | Cc1ccc(S(=O)(=O)Nc2ccc(/C=C/C(=O)Nc3ccccc3N)cc2)cc1 [Compound 5, N-(2-Aminophenyl)-3-[4-(4-methylbenzenesulfonylamino)-phenyl]-acrylamide] | 48(20,I) % | 55(40,I) %

SMILES | IC50 [1] | IC50 [2] | IC50 [3] | IC50 [4] | IC50 [5] | IC50 [6] | IC50 [7] | IC50 [9] | % of Inhibition of Tumor Growth in Vivo HCT116 [8, 10] | % of Inhibition of Tumor Growth in Vivo HCT116 ([8]; (40,I): 40 mg/kg body weight/day)
Nc1ccccc1NC(=O)c1ccc(CSc2nc3ccccc3[nH]2)cc1 [Compound 16, N-(2-Amino-phenyl)-4-(1H-benzimidazol-2-ylsulfanylmethyl)-benzamide] | 300 nM | 29000 nM | 2000 nM | 38000 nM | 1000 nM | 1000 nM | 200 nM |  | 61(20,I) % | 
